From PMC8915595, “Revisiting the application of Immobilized Artificial Membrane (IAM) chromatography to estimate in vivo distribution properties of drug discovery compounds based on the model of marketed drugs” (ADMET & DMPK, 2020)

Tests used:
[1] = target: T1, human serum albumin (HSA) (Homo sapiens, UniProt P02768); details: cited from earlier work
[2] = human
[3] = IAM chromatography on new IAM.PC.DD2 columns (gradient HPLC, CHI (IAM)); type: physicochemical; parameters: key to CHI (IAM) “new” / P20511-014-3 CHI (IAM): CHI (IAM) from retention times calibrated to predefined CHI standards; details: for P20511-014-3 CHI (IAM): new IAM.PC.DD2 column batch P20511-014-3, pH 7.4; for R20511-014-3 CHI (IAM): new IAM.PC.DD2 column batch R20511-014-3, pH 7.4; for outlier in correlation of reference CHI (IAM) with CHI (IAM) on column R20511-014-3: lower CHI (IAM) on new batches, outlier if difference greater than 7.2 CHI IAM units; for CHI (IAM) deviation between reference and new IAM.PC.DD2 columns / CHI (IAM) “new”: system suitability test compounds; for CHI (IAM) “new”: new IAM.PC.DD2 columns, pH 7.4
Procedure: The IAM binding was measured using IAM.PC.DD2 HPLC columns (Regis Technologies, Inc., IL, USA) with dimensions of 100 x 4.6 mm, particle size 10 μm with 300 Å pore size.
Two batches of IAM.PC.DD2 columns were studied (R20511-014-3 and P20511-014-3) that had been prepared using the new batches of silica support.
The retention times were standardized using the IAM calibration mixture, containing octanophenone, heptanophenone, hexanophenone, valerophenone, butyrophenone, propiophenone, acetophenone, acetanilide and paracetamol. The retention times of the compounds were plotted against the isocratically determined and predefined CHI (IAM) values listed in Table 1. The slope and intercept of the obtained straight line was used to calculate the CHI IAM values of new compounds.

[4] = target: T1, human serum albumin (HSA); assay: Protein binding on chemically bonded HSA column (Chiralpak-HSA); details: remeasured in this study, pH 7.4
Procedure: Mobile phase A was 50 mM ammonium acetate adjusted to pH 7.4 and mobile phase B was 2-propanol. The flow rate was 1.5 mL/min and the run time was 6 min. The 2-propanol gradient was applied from 0 to 35% from 0 to 3.00 min and kept at 35% until 4.00 min.

[5] = cited from earlier work; for CHI (IAM) from ref [13]: reference CHI (IAM), old columns

T1 sequence (P02768 25-609): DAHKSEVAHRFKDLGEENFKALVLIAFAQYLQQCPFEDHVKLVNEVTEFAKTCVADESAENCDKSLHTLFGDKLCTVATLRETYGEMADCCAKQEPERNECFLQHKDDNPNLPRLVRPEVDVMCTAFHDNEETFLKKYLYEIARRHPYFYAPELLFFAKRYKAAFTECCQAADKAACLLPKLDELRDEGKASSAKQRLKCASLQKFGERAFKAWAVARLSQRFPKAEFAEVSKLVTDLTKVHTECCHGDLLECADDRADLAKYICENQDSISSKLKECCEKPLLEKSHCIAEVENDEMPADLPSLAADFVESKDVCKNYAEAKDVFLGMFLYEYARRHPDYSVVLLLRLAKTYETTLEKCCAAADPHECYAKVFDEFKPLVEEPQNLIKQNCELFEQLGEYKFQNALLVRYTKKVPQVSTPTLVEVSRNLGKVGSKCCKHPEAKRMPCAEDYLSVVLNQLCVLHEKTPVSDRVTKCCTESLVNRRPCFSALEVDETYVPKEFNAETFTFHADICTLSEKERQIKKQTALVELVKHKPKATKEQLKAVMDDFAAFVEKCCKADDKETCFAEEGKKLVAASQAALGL

Row | SMILES | log K HSA from ref [13] [1] | reference log Vdss [2] | P20511-014-3 CHI (IAM) [3] | R20511-014-3 CHI (IAM) [3] | log K HSA [4] | CHI (IAM) from ref [13] [5] | outlier in correlation of reference CHI (IAM) with CHI (IAM) on column R20511-014-3 [3] | CHI (IAM) deviation between reference and new IAM.PC.DD2 columns [3] | CHI (IAM) “new” [3] | CHI (IAM) ([5]; previously published, IAM column manufactured 2004-2012)
1 | COc1ccc(NS(=O)(=O)c2ccc(N)cc2)nn1 [Sulfamethoxypyridazine] | 2.33 | -0.59 | 11.16 | 11.11 | 4.27 |  |  |  |  | 
2 | Nc1ccc(S(=O)(=O)Nc2ccc(Cl)nn2)cc1 [Sulfachlorpyridazine] | 2.04 | -0.76 | 10.83 | 10.08 | 2.20 | 6.00 |  |  |  | 
3 | CC(C)NCC(O)COc1cccc2[nH]ccc12 (centres unmarked) [Pindolol] | 1.81 | 0.85 | 25.31 | 25.69 | 2.40 | 42.00 | outliers |  |  | 
4 | Cc1c(Cl)cccc1Nc1ccccc1C(=O)O [Tolfenamic Acid] | 2.46 | -0.76 | 41.53 | 40.72 | 6.60 | 36.60 |  |  |  | 
5 | Cc1ncc([N+](=O)[O-])n1CCO [Metronidazole] | 0.66 | -0.25 | -3.24 | -2.71 | 0.72 | -3.30 |  |  |  | 
6 | CCN1CCCC1CNC(=O)c1cc(S(N)(=O)=O)ccc1OC (centres unmarked) [Sulpiride] | 4.84 | 0.12 | 16.15 | 15.80 |  | 25.50 | outliers |  |  | 
7 | COc1ccc2c(c1)c(CC(=O)O)c(C)n2C(=O)c1ccc(Cl)cc1 [Indomethacin] |  | -0.96 | 33.16 | 32.49 |  | 25.30 |  | very similar | 30.0 | 
8 | CC(C)(C)NC(=O)[C@H]1CC[C@H]2[C@@H]3CC[C@H]4NC(=O)C=C[C@]4(C)[C@H]3CC[C@]12C [Finasteride] | 3.62 | 0.3 | 37.17 | 37.15 | 3.55 |  |  |  |  | 
9 | CC(=O)CCCCn1c(=O)c2c(ncn2C)n(C)c1=O [Pentoxifylline] | 3.27 | -0.1 | 13.87 | 14.04 | 4.03 | 12.00 |  |  |  | 
10 | Cc1cc(C)nc(NS(=O)(=O)c2ccc(N)cc2)n1 [Sulphadimidine] | 0.75 | 0.22 | 11.09 | 10.89 | 1.72 | 34.55 |  |  |  | 34.6
11 | CCn1nc(C(=O)O)c(=O)c2cc3c(cc21)OCO3 [Cinoxacin] | 0.79 | -0.42 | 6.67 | 5.31 | 0.91 |  |  |  |  | 
12 | CC(O)Cn1cnc2c1c(=O)n(C)c(=O)n2C (centres unmarked) [Proxyphylline] | 1.97 | -0.85 | 10.89 | 10.05 | 3.02 |  |  |  |  | 
13 | Cc1onc(-c2c(F)cccc2Cl)c1C(=O)N[C@@H]1C(=O)N2[C@@H]1SC(C)(C)[C@@H]2C(=O)O [Floxacillin] | 0.56 | -0.56 | 24.59 | 23.76 | 0.65 | 23.40 |  |  |  | 
14 | C[C@H]1C[C@@H]2[C@H]([C@@H](O)C[C@@]3(C)[C@H]2CC[C@]3(O)C(=O)CO)[C@@]2(C)C=CC(=O)C=C12 [Methylprednisolone] | 0.76 | 0.16 | 30.77 | 30.91 | 0.28 | 32.10 |  |  |  | 
15 | C[C@]12C=CC(=O)C=C1CC[C@@H]1[C@@H]2C(=O)C[C@@]2(C)[C@H]1CC[C@]2(O)C(=O)CO [Prednisone] | 0.62 | 0.05 | 25.13 | 25.25 | 0.42 |  |  |  |  | 
16 | COC(=O)C1=C(C)NC(C)=C(C(=O)OC(C)C)C1c1cccc2nonc12 (centres unmarked) [Isradipine] | 2.9 | 0.13 | 39.16 | 39.11 | 3.30 | 40.00 |  |  |  | 
17 | NS(=O)(=O)c1cc2c(cc1Cl)NCNS2(=O)=O [Hydrochlorothiazide] | 0.92 | -0.13 | 13.08 | 13.04 | 1.05 | 15.90 |  |  |  | 
18 | Nc1cc(N2CCCCC2)nc(N)[n+]1[O-] [Minoxidil] | 3.16 | -0.04 | 16.08 | 15.93 | 3.41 | 19.00 |  |  |  | 
19 | COC(=O)C1=C(C)NC(C)=C(C(=O)OCCN(C)Cc2ccccc2)C1c1cccc([N+](=O)[O-])c1 (centres unmarked) [Nicardipine] | 1.41 | 0.47 | 43.73 | 43.82 | 1.95 | 45.90 |  | very similar | 45.0 | 
20 | CCOC(=O)C1=C(C)NC(C)=C(C(=O)OC)C1c1cccc([N+](=O)[O-])c1 (centres unmarked) [Nitrendipine] | 2.35 | 0.16 | 39.19 | 39.06 | 2.70 | 40.50 |  |  |  | 
21 | CC(C)(C)NCC(O)COc1cccc2c1CC(O)C(O)C2 (centres unmarked) [Nadolol] | 2.93 | -0.33 | 19.23 | 19.89 | 3.55 | 20.20 |  |  |  | 
22 | CN(C)CCCN1c2ccccc2Sc2ccc(Cl)cc21 [Chlorpromazine] | 1.18 | 2.15 | 50.94 | 51.54 | 1.27 |  |  | > 5 CHI (IAM) unit | 54.0 | 
23 | O=C(O)Cc1ccccc1Nc1c(Cl)cccc1Cl [Diclofenac] |  | -0.67 | 35.85 | 35.18 |  | 33.50 |  |  |  | 
24 | Cn1cnc2c1c(=O)[nH]c(=O)n2C [Theobromine] | 4.68 | -0.25 | -3.71 | -3.16 |  |  |  |  |  | 
